# What was measured:
# Format in all cases: in vivo, rat
# diabetic rats [1] = assay: Blood glucose concentration changes (regression slope) during dietary feeding of defined chemical species (Example 2); details: Table 6
# From the text: (§1) Rats were first made diabetic by injection with streptozotocin, and then allowed to stabilize for a period of two weeks. […] After the two week period, the surviving diabetic rats were divided into seven groups and provided either with plain drinking water as a control, or drinking water containing one of six compositions to be tested for their effects on various parameters associated with the diabetic condition. Constituents included in these compositions, in varying combinations, were: zinc (20 mg/L); L-histidine (20 mg/L); arachidonic acid (100 mg/L); testosterone (100 mg/L); and C-Hispro (10 mg/L).
# (§2) Diabetic rats receiving one of the six test compositions or control drinking water were monitored for blood glucose concentration, body weight and water consumption over a period of about one month. Values for these parameters were plotted on a graph, and a regression line drawn. […] Thus, if the blood glucose concentration increased substantially steadily over the course of the experiment, the slope of the regression line was reported along with the number of days duration during which the change was monitored.
# diabetic rats [2] = assay: Blood glucose in diabetic rats administered arachidonic acid and 0.5 mg/kg/day L-histidine (dose optimisation)
# Procedure: In the experiment used to produce the results presented in Table 11, the concentration of AA was varied and the L-histidine concentration was held constant. Thus, a range of from 3-30 mg/kg/day of AA provided a therapeutic benefit, with a range of from 10-12 mg/kg/day of AA providing the greatest benefit.
# diabetic rats [3] = assay: Water consumption by diabetic rats during administration of chemicals in drinking water (Example 2); details: Table 8
# From the text: as §1, §2
# diabetic rats [4] = assay: Optimizing the level of C-Hispro intake for improving diabetes (blood glucose); details: for Mean mg glucose/dL after Tmt / Mean mg glucose/dL before Tmt: 10 mg Zn/L in drinking water; for Changes of mg glucose/dL: 10 mg Zn/L, decrease
# Procedure: The results presented in Table 9 were used to determine the optimal concentration of C-Hispro useful for improving the symptoms associated with diabetes. Since rats consuming water containing C-Hispro ad libitum also consumed the lowest water volume as evidenced by the results in Table 8, the optimal concentration of C-Hispro for improving the symptoms of diabetes was determined by providing animals with water containing different concentrations of c-Hispro. The amounts of consumed were determined by measuring the amount of water consumed, dividing this value by the weight of the rat and multiplying the result by the c-Hispro concentration. The amount of C-Hispro intake for the most dramatic improvement of symptoms of diabetes was about 300 μg/kg/day, based on the results presented in Tables 9 and 10. […] Similar ranges of dosages also are expected to be useful for treating diabetic mammals, including humans.
# [5] = arachidonic acid 2.02 to 2.39 mg/kg/day, plus 0.5 mg/kg/day L-histidine
# [6] = arachidonic acid 3.04 to 3.58 mg/kg/day, plus 0.5 mg/kg/day L-histidine
# [7] = arachidonic acid 4.05 to 4.78 mg/kg/day, plus 0.5 mg/kg/day L-histidine
# [8] = arachidonic acid 5.06 to 5.97 mg/kg/day, plus 0.5 mg/kg/day L-histidine
# [9] = arachidonic acid 10.12 to 11.95 mg/kg/day, plus 0.5 mg/kg/day L-histidine
# [10] = arachidonic acid 15.18 to 17.91 mg/kg/day, plus 0.5 mg/kg/day L-histidine
# [11] = arachidonic acid 20.24 to 23.88 mg/kg/day, plus 0.5 mg/kg/day L-histidine
# [12] = arachidonic acid 25.30 to 29.85 mg/kg/day, plus 0.5 mg/kg/day L-histidine
# [13] = arachidonic acid 0 mg/kg/day, 0.5 mg/kg/day L-histidine
# [14] = C-Hispro intake 217 to 231 μg/kg, restricted water intake
# [15] = C-Hispro intake 281 to 290 μg/kg, unrestricted water intake
# [16] = C-Hispro intake 303 to 337 μg/kg, restricted water intake
# [17] = C-Hispro intake 386 to 466 μg/kg, unrestricted water intake
# [18] = C-Hispro intake 448 to 463 μg/kg, restricted water intake
# [19] = C-Hispro intake 452 to 554 μg/kg, unrestricted water intake
# [20] = C-Hispro intake 554 to 597 μg/kg, restricted water intake
# [21] = C-Hispro intake 569 to 680 μg/kg, unrestricted water intake
smiles,measurement,setting,value
C[C@]12CC[C@H]3[C@@H](CCC4=CC(=O)CC[C@@]43C)[C@@H]1CC[C@@H]2O [testosterone],benefit of including testosterone in the composition,diabetic rats [1],no apparent benefit
CCCCC/C=C\C/C=C\C/C=C\C/C=C\CCCC(=O)O [arachidonic acid],range of AA providing the greatest benefit,diabetic rats [2]; L-histidine held constant,10 to 12 mg/kg/day
same,range of AA that provided a therapeutic benefit,diabetic rats [2]; L-histidine held constant,3 to 30 mg/kg/day
same,optimal amount of AA for improving the symptoms of diabetes in rats,diabetic rats [2]; L-histidine held constant (0.5 mg/kg/day),about 10 mg/kg/day
same,mg glu/dL Post-Treatment,diabetic rats [2]; [5],321 ± 34 mg glu/dL
same,mg glu/dL Pre-Treatment,diabetic rats [2]; [5],263 ± 48 mg glu/dL
same,mg glu/dL improvement,diabetic rats [2]; [5],-58 ± 16 mg glu/dL
same,mg glu/dL Post-Treatment,diabetic rats [2]; [6],256 ± 25 mg glu/dL
same,mg glu/dL Pre-Treatment,diabetic rats [2]; [6],303 ± 23 mg glu/dL
same,mg glu/dL improvement,diabetic rats [2]; [6],47 ± 26 mg glu/dL
same,mg glu/dL Post-Treatment,diabetic rats [2]; [7],247 ± 32 mg glu/dL
same,mg glu/dL Pre-Treatment,diabetic rats [2]; [7],308 ± 17 mg glu/dL
same,mg glu/dL improvement,diabetic rats [2]; [7],61 ± 43 mg glu/dL
same,mg glu/dL Post-Treatment,diabetic rats [2]; [8],252 ± 29 mg glu/dL
same,mg glu/dL Pre-Treatment,diabetic rats [2]; [8],426 ± 56 mg glu/dL
same,mg glu/dL improvement,diabetic rats [2]; [8],174 ± 53 mg glu/dL
same,mg glu/dL Post-Treatment,diabetic rats [2]; [9],187 ± 15 mg glu/dL
same,mg glu/dL Pre-Treatment,diabetic rats [2]; [9],393 ± 23 mg glu/dL
same,mg glu/dL improvement,diabetic rats [2]; [9],206 ± 25 mg glu/dL
same,mg glu/dL Post-Treatment,diabetic rats [2]; [10],184 ± 16 mg glu/dL
same,mg glu/dL Pre-Treatment,diabetic rats [2]; [10],368 ± 25 mg glu/dL
same,mg glu/dL improvement,diabetic rats [2]; [10],184 ± 30 mg glu/dL
same,mg glu/dL Post-Treatment,diabetic rats [2]; [11],241 ± 18 mg glu/dL
same,mg glu/dL Pre-Treatment,diabetic rats [2]; [11],379 ± 25 mg glu/dL
same,mg glu/dL improvement,diabetic rats [2]; [11],138 ± 33 mg glu/dL
same,mg glu/dL Post-Treatment,diabetic rats [2]; [12],301 ± 27 mg glu/dL
same,mg glu/dL Pre-Treatment,diabetic rats [2]; [12],443 ± 52 mg glu/dL
same,mg glu/dL improvement,diabetic rats [2]; [12],142 ± 66 mg glu/dL
"N[C@@H](Cc1c[nH]cn1)C(=O)O [L-Histidine, L-histidine]",effect of L-histidine in the drinking water on diabetes,diabetic rats [2]; 0.5 mg/kg L-histidine,improved diabetes
same,mg glu/dL Post-Treatment,diabetic rats [2]; [13],304 ± 50 mg glu/dL
same,mg glu/dL Pre-Treatment,diabetic rats [2]; [13],204 ± 22 mg glu/dL
same,mg glu/dL improvement,"diabetic rats [2]; arachidonic acid 0 mg/kg/day, 0.5 mg/kg/day L-histidine, negative = increase",-100 ± 62 mg glu/dL
"O=C1N[C@@H](Cc2cnc[nH]2)C(=O)N2CCC[C@@H]12 [C-Hispro, cyclo-Hispro]",water consumption compared to the other groups,diabetic rats [3],lower than in the other groups tested
same,Mean mg glucose/dL after Tmt,diabetic rats [4]; [14],213 ± 43 mg glucose/dL
same,Mean mg glucose/dL before Tmt,diabetic rats [4]; [14],372 ± 33 mg glucose/dL
same,Changes of mg glucose/dL,diabetic rats [4]; [14],159 ± 45 mg glucose/dL
same,Mean mg glucose/dL after Tmt,diabetic rats [4]; [15],258 ± 27 mg glucose/dL
same,Mean mg glucose/dL before Tmt,diabetic rats [4]; [15],373 ± 30 mg glucose/dL
same,Changes of mg glucose/dL,diabetic rats [4]; [15],115 ± 33 mg glucose/dL
same,Mean mg glucose/dL after Tmt,diabetic rats [4]; [16],192 ± 28 mg glucose/dL
same,Mean mg glucose/dL before Tmt,diabetic rats [4]; [16],422 ± 27 mg glucose/dL
same,Changes of mg glucose/dL,diabetic rats [4]; [16],230 ± 14 mg glucose/dL
same,Mean mg glucose/dL after Tmt,diabetic rats [4]; [17],353 ± 37 mg glucose/dL
same,Mean mg glucose/dL before Tmt,diabetic rats [4]; [17],411 ± 22 mg glucose/dL
same,Changes of mg glucose/dL,diabetic rats [4]; [17],58 ± 47 mg glucose/dL
same,Mean mg glucose/dL after Tmt,diabetic rats [4]; [18],216 ± 23 mg glucose/dL
same,Mean mg glucose/dL before Tmt,diabetic rats [4]; [18],342 ± 20 mg glucose/dL
same,Changes of mg glucose/dL,diabetic rats [4]; [18],126 ± 34 mg glucose/dL
same,Mean mg glucose/dL after Tmt,diabetic rats [4]; [19],367 ± 47 mg glucose/dL
same,Mean mg glucose/dL before Tmt,diabetic rats [4]; [19],417 ± 8 mg glucose/dL
same,Changes of mg glucose/dL,diabetic rats [4]; [19],50 ± 41 mg glucose/dL
same,Mean mg glucose/dL after Tmt,diabetic rats [4]; [20],221 ± 12 mg glucose/dL
same,Mean mg glucose/dL before Tmt,diabetic rats [4]; [20],314 ± 24 mg glucose/dL
same,Changes of mg glucose/dL,diabetic rats [4]; [20],93 ± 32 mg glucose/dL
same,Mean mg glucose/dL after Tmt,diabetic rats [4]; [21],314 ± 20 mg glucose/dL
same,Mean mg glucose/dL before Tmt,diabetic rats [4]; [21],359 ± 46 mg glucose/dL
same,Changes of mg glucose/dL,diabetic rats [4]; [21],45 ± 16 mg glucose/dL
same,amount of C-Hispro intake for the most dramatic improvement of symptoms of diabetes,diabetic rats [4]; based on Tables 9 and 10,about 300 μg/kg/day
